Results as given in patent publication US20080226639A1, “Heparin Binding Peptide” (Enkan Pharmaceuticals A/S, priority 2004, published 2008).
Residues, ends and D or L forms follow the SMILES beside them.

Experiments:
[1] = test system: fibroblasts with or without NCAM expression (mouse fibroblastoid L-cells); experiment: Random cell motility of fibroblasts, time-lapse video-recording; type: cell-based; conditions: both NCAM expressing fibroblasts and control fibroblasts (FIG. 5)
Method: For evaluation the effect of the peptides on cell motility, confluent cultures of fibroblasts with or without NCAM expression are dislodged with 0.5 mg/ml of trypsin and 0.75 mM EDTA in a modified Puck's saline (Gibco BRL), seeded in six-well tissue culture plates (Nunc) at a density of 4×10^3 cells/cm^2 and grown for 24 h at 37° C. and at 5% CO2.
Random cell motility was evaluated by use of time-lapse video-recording and image analysis as described previously (Walmod, et al. (1998). Cell Motil Cytoskeleton. 40(3), 220-37). […]
Evaluation of cell motility and morphology is performed using the image processing software PRIMA. The positions of individual cells are determined by manual marking of the centers of the nuclei. […] The parameters of mean squared cell speed (Sτ), rate of diffusion (R), and locomotive index (LI) are determined according to Walmod, et al. (2000) (Methods Mol. Biology. 161, 59-83) as described below.
The displacement of a cell is the Euclidean distance between two points corresponding to the initial and final positions of the cell. […] The mean squared cell displacement of a cellular population after a given time (t1) of observation was calculated as […]
where P is the persistence time in direction (23). The mean cell speed, Sτ, was calculated as the ratio of the mean displacement of cells (<dτ>) to the time interval τ. […]

[2] = test system: rat cerebella granular neurons (CGNs); experiment: Neurite outgrowth of CGNs in co-culture with fibroblasts with or without NCAM expression; type: cell-based; conditions: for neurite outgrowth of CGNs grown on fibroblasts without NCAM expression: CGNs on control fibroblasts without NCAM expression; for neurite outgrowth of CGNs grown on fibroblasts without NCAM expression / neurite outgrowth of CGNs grown on fibroblasts expressing NCAM: 24 h co-culture, different peptide concentrations (FIG. 1); for neurite outgrowth of CGNs grown on fibroblasts expressing NCAM: CGNs on monolayers of NCAM expressing fibroblasts
Method: Genetically modified fibroblasts (mouse fibroblastoid L-cells) with or without NCAM expression are seeded in eight-well LabTek tissue culture chamber slides (Nunc, Roskilde, Denmark) at a density 7×10^4 of cells/well and maintained at 37° C. and 5% CO2 in DMEM with 10% HS, 100 U/ml penicillin and 100 μg/ml streptomycin. 24 h after plating the medium is removed and CGNs (10^4 cells/well) are seeded on monolayers of fibroblasts with or without NCAM expression in Neurobasal-A medium containing 100 U/ml penicillin, 100 μg/ml streptomycin, 1% glutamax and supplemented with B27, and grown in co-culture for 24 hours, afterwards neurite outgrowth is measured. CGNs are prepared from postnatal day 3-4 rat pups according to Rønn, L. C., Doherty, P., Holm, A., Berezin, V., Bock, E. (2000). J. Neurochem. 75(2):665-71.

[3] = test system: primary cerebellar granule neurons (CGNs); experiment: Neurite outgrowth in primary culture of single CGNs; type: cell-based, rat; conditions: single CGNs (FIG. 3); for maximal effect on neurite outgrowth: peptide immobilized on tissue culture plastic, coating concentration of 5 μg/ml
Method: Primary cerebellar granule neurons (CGNs) are prepared from postnatal day 3-4 rat pups according to Rønn, L. C., Doherty, P., Holm, A., Berezin, V., Bock, E. (2000). J. Neurochem. 75(2):665-71. Dissociated cerebella cells are grown at 37° C. and 5% CO2 in Neurobasal-A medium containing 20 mM Hepes, 100 U/ml penicillin, 100 μg/ml streptomycin, 1% glutamax and supplemented with B27 (all from Gibco BRL). For testing the effect of the peptides, CGNs are seeded in eight-well LabTech tissue chamber slides with a growth surface of Permanox plastic (Nunc) at a density of 10^4 cells/well in Neurobasal-A medium containing 100 U/ml penicillin, 100 μg/ml streptomycin, 1% glutamax and supplemented with B27. When treated with Heparinase III (1 U/ml), the enzyme is added to the culture medium immediately after plating. CGNs are treated with the enzyme for 1 h before addition of different concentrations (1 μg/ml, 5 μg/ml, and 20 μg/ml) of the peptides. After 24 h of culture, cells are fixed with paraformaldehyde, immunostained with primary mouse antibodies against CD90 (Thy-1) (1:200) (Caltag Laboratories, USA) (PC12-E2 cells) or GAP-43 (1:1000) (Chemicon, USA) (CGNs) and secondary Alexa Fluor®488 goat antibody against mouse IgG (1:1000) (Molecular Probes, Netherlands), and the length of neurites is measured by a stereological method as previously described (Ronn, L. C., Ralets, I., Hartz, B. P., Bech, M., Berezin, A., Berezin, V., Møller, A., Bock, E (2000). J Neurosci Methods. 100(1-2), 25-32).

[4] = molecular target: T1, recombinant Trk B receptor (Homo sapiens, UniProt Q16620); experiment: BIAcore binding analysis to Trk B receptor; conditions: HBP or Ig2 module immobilized on sensor chip CM5, Trk B injected, 25° C., pH 7.4 (FIG. 7)
T1 construct: purchased RD Systems (USA)
Method: Recombinant the Ig2 module of NCAM was prepared using in the yeast P. pastoris expression system (Invitrogen, USA) as previously described (Kiselyov et al., Biol. Chem. 272, 10125-10134, 1997). Recombinant Trk B receptor was purchased from RD Systems (USA).
Binding analysis was performed using a BIAcoreX instrument (Biosensor AB) at 25° C. using 10 mM sodium phosphate pH 7.4, 150 mM NaCl as running buffer. The flow-rate was 5 μl/min. Data were analysed by non-linear curve-fitting using the manufacture's software. The HBP or recombinant Ig 2 module of NCAM were immobilized on a sensor chip CM5 using amine coupling kit (Biosensor AB) as follows: 1) the two halves of the chip (designated Fc1 and Fc2) were activated by 20 μl activation solution; 2) the protein was immobilized on Fc1 using 12 μl 20 μg/ml protein in 10 mM sodium phosphate buffer pH 6.0; 3) Fc1 and Fc2 were blocked by 35 μl blocking solution. Binding of Trk B to the immobilized HBP or the Ig module II of NCAM was studied as follows: Trk B was injected simultaneously into Fc1 (with the immobilized HBP or Ig module II of NCAM) and Fc2 (with nothing immobilized). The curve representing unspecific binding of the compound to the surface of Fc2 was subtracted from the curve representing binding of Trk B to the immobilized protein (HBP or the Ig 2 module of NCAM) and the surface of Fc1. […]

T1 sequence (Q16620 32-822): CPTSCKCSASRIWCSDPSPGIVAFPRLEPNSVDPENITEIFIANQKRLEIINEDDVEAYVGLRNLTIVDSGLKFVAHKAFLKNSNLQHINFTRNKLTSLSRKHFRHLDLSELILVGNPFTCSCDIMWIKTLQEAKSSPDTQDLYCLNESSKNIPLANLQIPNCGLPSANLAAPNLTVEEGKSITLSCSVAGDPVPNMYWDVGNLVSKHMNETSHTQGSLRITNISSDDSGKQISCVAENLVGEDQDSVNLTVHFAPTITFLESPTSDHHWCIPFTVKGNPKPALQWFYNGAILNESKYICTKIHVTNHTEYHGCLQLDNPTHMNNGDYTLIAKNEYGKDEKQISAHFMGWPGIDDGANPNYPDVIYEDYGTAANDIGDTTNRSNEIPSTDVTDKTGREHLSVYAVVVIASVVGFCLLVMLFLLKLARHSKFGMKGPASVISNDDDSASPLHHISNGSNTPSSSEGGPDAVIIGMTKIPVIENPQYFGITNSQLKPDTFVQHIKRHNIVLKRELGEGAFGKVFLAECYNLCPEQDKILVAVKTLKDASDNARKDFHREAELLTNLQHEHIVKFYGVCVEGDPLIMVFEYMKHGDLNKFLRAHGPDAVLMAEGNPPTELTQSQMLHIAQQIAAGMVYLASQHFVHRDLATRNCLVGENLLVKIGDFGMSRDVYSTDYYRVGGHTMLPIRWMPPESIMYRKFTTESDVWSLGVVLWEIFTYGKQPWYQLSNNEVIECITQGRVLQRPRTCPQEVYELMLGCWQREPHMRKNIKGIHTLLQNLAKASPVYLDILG

Row | Kd [4] [nM] | Molecule | cell motility: rate of diffusion (R), mean cell speed (Sτ), locomotive index (LI) [1] | neurite outgrowth of CGNs grown on fibroblasts without NCAM expression [2] | neurite outgrowth of CGNs grown on fibroblasts expressing NCAM [2] | neuritogenic effect on CGNs grown on control fibroblasts under treatment with SU5402 (FGFR inhibitor) ([2]; control fibroblasts without NCAM expression, plus SU5402 (FIG. 2)) | change of the neurite outgrowth effect by treatment with heparinase III ([3]; heparinase III 1 U/ml) | maximal effect on neurite outgrowth [3] [%] | effect on NCAM mediated neurite outgrowth in co-cultures of CGNs with NCAM expressing fibroblasts, in the presence of HBP ([2]; NCAM expressing fibroblasts, HBP present (FIG. 2)) | effect on NCAM mediated neurite outgrowth in the absence of HBP ([2]; NCAM expressing fibroblasts, no HBP (FIG. 2))
1 | – | CC[C@H](C)[C@H](NC(=O)[C@H](Cc1ccccc1)NC(=O)[C@H](CCCNC(=N)N)NC(=O)[C@@H](NC(=O)[C@H](CC(=O)O)NC(=O)[C@H](CCCCN)NC(=O)[C@H](CCCCN)NC(=O)[C@H](CC(C)C)NC(=O)[C@@H](NC(=O)[C@@H](NC(=O)[C@H](CC(=O)O)NC(=O)[C@H](CCCNC(=N)N)NC(=O)CNC(=O)[C@@H](N)CCCCN)C(C)C)[C@@H](C)CC)C(C)C)C(N)=O [HBP, KGRDVILKKDVRFI] (H-KGRDVILKKDVRFI-NH2; N-terminus and C-terminus assumed) | clear inhibition of cell motility | in a dose-dependent manner increases neurite outgrowth | in a dose-dependent manner increases neurite outgrowth | is not blocked by treatment with SU5402 | reduced the effect of HBP | 680 | – | –
2 | – | Cc1c[nH]c(/C=C2\C(=O)Nc3ccccc32)c1CCC(=O)O [SU5402, reference compound] | – | – | – | – | – | – | only partially inhibited | blocks NCAM mediated neurite outgrowth
3 | – | KGRDVILAKDVRVI (HBP mutant (peptide M)) [HBP mutant, Lys-161 and Phe-166 substituted for Ala and Val] | inhibitory effect on the motile behaviour of fibroblasts similar to the effect of HBP | still stimulates neurite outgrowth | does not affect the neurite outgrowth response | – | – | 400 | – | –
4 | 1 to 10 | Ig 2 module of NCAM: recombinant Ig2 module of NCAM prepared in the yeast P. pastoris expression system (protein) KLMFKNAPTPQEFKEGEDAVIVCDVVSSLPPTIIWKHKGRDVILKKDVRFIVLSNNYLQIRGIKKTDEGTYRCEGRILARGEINFKDIQVIVNV | – | – | – | – | – | – | – | –
